In brackets after ≈: the same amount, converted by molar mass.
Details: buffer; pH 7.4; 200.0 µM

SMILES	solubility kinetic [µg/mL]
CNS(=O)(=O)c1cccc(C(=O)OCC(=O)NC2CCCC(C)C2C)c1 (stereo not given)	12.7 (≈ 33.2 µM)
COc1ccccc1Oc1ccc2c(c1)C(=O)N(CC(=O)O)C2=O	> 49.1
Cc1ccc(OCC(=O)N2CCCCC2C)c([N+](=O)[O-])n1 (stereo not given)	> 44
COCCn1c(C)cc(C(=O)CSc2nc(C)c(C)c(C)n2)c1C	45.3 (≈ 130 µM)
CC1CCCC(C)N1C(=O)COC(=O)c1ccc(S(=O)(=O)N(C)c2ccccc2)cc1 (stereo not given)	6.9 (≈ 15.5 µM)
CCOc1cc(S(=O)(=O)NCc2cccnc2)c(C)cc1C	> 48.1
O=[N+]([O-])c1ccc(Cc2cncc(O)c2)cc1	34.1 (≈ 148 µM)
Cl.NCCOc1ccc(C23CC4CC(CC(C4)C2)C3)cc1	> 46.2
NC(=O)COc1ccc(C(=O)/C=C2/C(=O)Nc3ccccc32)cc1	6.4 (≈ 19.9 µM)
O=C1NC2(CCCCC2)C(=O)N1CCN1C(=O)c2ccccc2C1=O	40.1 (≈ 117 µM)
CC(=O)Nc1ccc(NCc2ccc(C)s2)cc1	> 39.1
CCNc1nc(SCC(N)=O)nc2sc3c(c12)CCN(C)C3	> 50.6
O=C(O)c1ccc(/C=N/O)cc1	> 24.8
c1ccc(CN2CCN(c3nc4ccccc4s3)CC2)cc1	1 (≈ 3.23 µM)
Cc1cccc(NC(=O)N2CCCCCC2)c1	> 34.8
CSc1ccccc1C(=O)OCC(=O)NCCN1C(=O)CSC1=O	> 55.3
O=[N+]([O-])c1cccc(-c2noc(-c3cccs3)n2)c1	< 0.2
CN(C(=O)CN1C(=O)c2ccc([N+](=O)[O-])cc2C1=O)C1CCCCC1	> 51.8
CC1CN(C(=S)Nc2ccc(S(N)(=O)=O)cc2)CC(C)O1 (stereo not given)	> 49.4
Cc1ccsc1/C=N/Nc1ncnc2nc[nH]c12	> 38.7

SMILES	solubility kinetic [µg/mL]
O=C1CC(/C=C/c2cccnc2)=Nc2ccccc2N1	24.4 (≈ 92.7 µM)
Cc1ccc(C(=O)Nc2nc3ccccc3[nH]2)cc1	2.4 (≈ 9.55 µM)
COc1cccc(C(=O)N(C)C(C)c2nc3ccccc3s2)c1 (stereo not given)	> 49
O=C(CNS(=O)(=O)c1cccs1)NCc1ccc(F)cc1	> 49.3
Cc1cccc(C)c1NC(=O)c1ccc2c(c1)CCN2S(C)(=O)=O	8.3 (≈ 24.1 µM)
CCN(CC)C(=O)c1sc2nc(-c3ccccc3)ccc2c1N	19.8 (≈ 60.8 µM)
CC(=O)Nc1ccc(S(=O)(=O)NCCc2c[nH]c3ccc(C)cc23)cc1	33.8 (≈ 91 µM)
CN1CCN(c2ccc(Cl)cc2NC(=O)/C=C/c2ccc(F)cc2)CC1	38.4 (≈ 103 µM)
Cc1cc(C)cc(OCC(=O)OCc2cc([N+](=O)[O-])cc3c2OCOC3)c1	3.9 (≈ 10.4 µM)
CCN(Cc1ccncc1)C(=O)c1ccc(C)c(S(=O)(=O)N2CCCCC2)c1	> 60.2
CCn1c(NC(=O)/C=C/c2ccc(F)cc2)nc2ccccc21	3.5 (≈ 11.3 µM)
Cc1ccc(C)c(NC(=S)N2CCN(c3ccccn3)CC2)c1	14.1 (≈ 43.2 µM)
CCOC(=O)C1=C(COC(=O)CCc2ccc(CC)cc2)NC(=O)NC1C (stereo not given)	40 (≈ 107 µM)
Cc1cccc(N=C2C(=O)Nc3c(Cl)cccc32)c1	32.4 (≈ 120 µM)
CC(=O)Nc1ccc(Oc2ccccc2)cc1	33.6 (≈ 148 µM)
CCOCCc1c(O)nc(SCC)[nH]c1=O	> 36.6
Cc1ccc(C(=O)NCCC(=O)NCc2ccco2)cc1	> 42.9
COc1ccccc1/C=C/C(=O)OCC(=O)Nc1ccc(Cl)cn1	1.1 (≈ 3.17 µM)
O=C(NCc1ccco1)c1cc(S(=O)(=O)NC2CC2)ccc1Br	> 59.9
O=C(COC(=O)c1ccc(Cl)nc1)c1ccc2c(c1)OCCO2	14.7 (≈ 44 µM)

SMILES	solubility kinetic [µg/mL]
Cc1ccsc1C1C(C#N)=C(N)N(N(C)C)C2=C1C(=O)CCC2 (stereo not given)	> 49.3
COc1ccccc1C(=O)OCC(=O)Nc1ccc(Cl)cn1	5.1 (≈ 15.9 µM)
CSc1ncc(CN2CCN(C3CCCC3)C(CCO)C2)cn1 (stereo not given)	42.6 (≈ 127 µM)
O=C(O)CCSc1ncnc2sc(-c3ccccc3)cc12	> 47.5
NCC1(CC(=O)O)CCCCC1	> 25.7
COc1ccccc1N(C)S(=O)(=O)c1ccc(C(=O)O)cc1	> 48.2
CCOc1ccc2oc(=O)cc(CN3CCOCC3)c2c1	41.5 (≈ 143 µM)
O=C(COc1ccccc1)Nc1ccc2oc(=O)ccc2c1	9.8 (≈ 33.2 µM)
O=C(COC(=O)c1ccccc1O)NCCCc1ccccc1	5 (≈ 16 µM)
Cc1ccc([N+](=O)[O-])cc1NC(=O)c1ccccc1	8.5 (≈ 33.2 µM)
Cc1[nH]c2ccc(C(=O)N3CCCC3)cc2c1C	> 36.3
COc1ccc(NC(=O)c2sccc2C)cn1	> 37.2
O=C(COC(=O)Cc1ccc(Br)cc1)Nc1ccc(Cl)cn1	3.9 (≈ 10.2 µM)
Cl.Fc1c(F)c(F)c(N2CCNCC2)c(F)c1F	> 43.3
CCNC(=S)Nc1ccc(NC(=O)c2ccccc2O)cc1	21.9 (≈ 69.4 µM)
Cc1cc(C)cc(C(=O)NC(=S)Nc2cccnc2)c1	8.4 (≈ 29.4 µM)
COc1cc(OC)cc(C(=O)Nc2ccc(CN3CCCCC3)cc2)c1	49.2 (≈ 139 µM)
COc1ccc(C(C)=O)cc1COC(=O)C1CCN(C(=O)c2ccc(Cl)cc2)CC1	33.5 (≈ 77.9 µM)
O=C(O)c1ccccc1-c1ccccc1C(=O)Nc1ccc(F)cc1	> 50.3
Cc1cc(C)c[n+](CC(=O)c2ccccc2)c1.[Br-]	43.8

— PubChem BioAssay AID1996
